Measurements: US8901140B2, “6-amino quinazoline or 3-cyano quinoline derivatives, preparation methods and pharmaceutical uses thereof” (Jiangsu Hengrui Medicine Co., Ltd., priority 2009, dated 2014)

Assays:
[1] = Pharmacokinetics Assay in rats, intragastric administration, LC/MS/MS; assay type: in vivo; details: both sexes, rat, plasma, po, SD rats, 25 mg/kg; for Vd/F: read-out: Apparent Distribution Volume Vz/F; for CL/F: read-out: Clearance CL/F (converted); for half-life: read-out: Half-Life t½ (converted); for Cmax: read-out: Plasma Conc. Cmax
Procedure: The pharmacokinetic behavior of the compounds of the present invention was studied and evaluated in rats. 8 healthy adult SD rats, male and female in half, were purchased from SINO-BRITSH SIPPR/BK LAB. ANIMAL LTD., CO, License number: SCXK (Shanghai) 2003-0002 The right amount of compounds were weighted and grinded with 0.5% Sodium Carboxymethyl cellulose uniformly, suspended them with 1% tween 80 to 2.5 mg/mL of suspension before use. […] 8 Healthy adult adult SD rats, male and female in half, were divided into 2 groups. After an overnight fast, the rats were administered intragastrically at a dose of 25.0 mg/kg. […] The plasma samples were stored at −20° C. until analysis. The rats were fed 2 hours after administration. 50 μL of rat plasmas taken at various time points after administration were mixed with 50 μL of standard series solution to obtain plasma concentration of 50.0, 100, 200, 500, 1000, 2000, 5000 ng/mL. 150 μL methanol was added and then the mixture was mixed for 3 minute using a vortexer and centrifuged for 10 minutes at 13,500 rpm. 10 μL of the supernatant was analyzed by LC-MS/MS. The main pharmacokinetic parameters were caculated by DAS 2.0 software.

[2] = system: xenografts of Calu-3 human lung cancer; assay: Therapeutic effects against xenografts of Calu-3 human lung cancer in nude mice; assay type: in vivo, BALB/cA-nude mice; details: for tolerance of the mice: present administration protocol
Procedure: BALB/cA-nude mice, 6 to 7 weeks old, ♀, purchased from Slaccas Experimental Animal LTD., CO.
Nude mice were hypodermic inoculated Calu-3 human lung cancer cell. After tumors grew to 150-250 mm^3, mice were randomly divided into teams (d0).
The volume of tumors and the weigh of the mice were measured and recorded for 2-3 times per week.
The calculation formula of the volume of tumor (V) is: V=½×a×b^2, a: length of tumor, b: width of tumor.

[3] = system: human epidermoid carcinoma A431 cells; assay: EGFR Cell Proliferation Inhibition Assay (SRB method, 72 hours); assay type: cell-based; details: A-431
Description: The activity is represented by the IC50 value. The general procedures of the assay are given as follows: The cancer cells A431 that highly expressing EGFR (Institute of biochemistry and cell biology) were chosen and seeded to 96-well cell culture plate at a suitable concentration (e.g., 5000 cells/mL medium). […] Then, the cell culture medium was replaced by fresh one with tested compounds added in it at serial concentrations (general 6 to 7 concentrations). Then the cells were put back to the incubator and cultured continuously. 72 hours later, the activity of the tested compounds for inhibiting the cell proliferation was determined by using Sulforhodamine B (SRB) method. IC50 value on tested cells are calculated by the data of inhibition rates of serial concentrations of the tested compounds.

[4] = biological target: EGFR kinase (Homo sapiens (Human), UniProt P00533); assay: EGFR Kinase Activity Assay (Time-Resolved fluorescence); assay type: biochemical; details: human-derived recombinant EGFR kinase, 20 μM ATP, 25° C., 45 minutes; read-out: IC50 (EGFR/BIO)
Procedure: The in vitro EGFR kinase activity was tested by the following assay.
The following assay may be used to determine the activity of the compounds of the invention for inhibiting EGFR kinase activity. […] EGFR kinase used in this assay is a human-derived recombinant protein (Cell signaling technology, #7908), which was reacted with peptide substrate and different concentrations of tested compounds in a buffer solution containing 60 mM HEPES (pH7.5), 5 mM MgCl2, 5 mM MnCl2, 3 μM Na3VO4, […] (1000×) and 20 μM ATP at 25° C., for 45 minutes. The EGFR kinase activity was determined by using a Time-Resolved fluorescence method.

[5] = high dose (200 mg/kg), Calu-3 xenografts
[6] = low dose (100 mg/kg), Calu-3 xenografts

EGFR kinase, sequence (P00533 25-1210): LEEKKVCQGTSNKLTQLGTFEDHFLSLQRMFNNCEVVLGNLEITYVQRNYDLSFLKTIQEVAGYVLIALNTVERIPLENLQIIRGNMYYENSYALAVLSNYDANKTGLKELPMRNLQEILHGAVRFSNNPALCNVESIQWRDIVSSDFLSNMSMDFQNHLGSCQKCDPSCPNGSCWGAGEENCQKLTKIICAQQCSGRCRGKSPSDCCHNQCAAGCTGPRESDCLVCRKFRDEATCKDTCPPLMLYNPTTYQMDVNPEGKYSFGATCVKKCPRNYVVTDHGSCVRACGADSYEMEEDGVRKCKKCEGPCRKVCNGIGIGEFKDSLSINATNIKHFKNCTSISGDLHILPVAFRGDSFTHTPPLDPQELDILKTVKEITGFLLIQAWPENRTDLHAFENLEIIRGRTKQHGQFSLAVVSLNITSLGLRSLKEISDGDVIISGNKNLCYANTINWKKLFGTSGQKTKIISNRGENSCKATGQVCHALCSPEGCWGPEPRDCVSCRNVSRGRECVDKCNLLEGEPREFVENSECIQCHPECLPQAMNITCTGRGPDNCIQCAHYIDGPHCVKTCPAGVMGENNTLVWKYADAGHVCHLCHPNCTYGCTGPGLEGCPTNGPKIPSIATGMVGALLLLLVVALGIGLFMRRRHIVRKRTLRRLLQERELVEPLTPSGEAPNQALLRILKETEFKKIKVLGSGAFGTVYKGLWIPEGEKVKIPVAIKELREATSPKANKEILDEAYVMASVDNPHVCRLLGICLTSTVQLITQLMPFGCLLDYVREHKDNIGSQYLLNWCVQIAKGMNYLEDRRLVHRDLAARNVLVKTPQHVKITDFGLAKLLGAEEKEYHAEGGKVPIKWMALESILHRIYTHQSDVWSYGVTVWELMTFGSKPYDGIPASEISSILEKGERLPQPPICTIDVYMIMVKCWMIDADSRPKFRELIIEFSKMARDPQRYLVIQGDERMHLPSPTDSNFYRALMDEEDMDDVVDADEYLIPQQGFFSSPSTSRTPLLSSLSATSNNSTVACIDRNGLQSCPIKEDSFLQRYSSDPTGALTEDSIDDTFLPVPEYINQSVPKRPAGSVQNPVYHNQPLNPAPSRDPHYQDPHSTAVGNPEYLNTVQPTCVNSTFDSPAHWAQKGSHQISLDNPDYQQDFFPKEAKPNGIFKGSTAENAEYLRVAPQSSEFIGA

Row | SMILES | IC50 [3] | IC50 [4] | Vd/F [1] | CL/F [1] | half-life [1] | Cmax [1] | reduced tumor volume (fraction of tumors) [2, 5] | reduced tumor volume (fraction of tumors) [2, 6] | tolerance of the mice [2] | other results
1 | CCOc1cc2ncc(C#N)c(Nc3ccc(OCc4ccccn4)c(Cl)c3)c2cc1NC(=O)/C=C/[C@@H]1CCCN1C [Example 1, (E)-N-[4-[[3-Chloro-4-(2-pyridylmethoxy)phenyl]amino]-3-cyano-7-ethoxy-6-quinolyl]-3-[(2S)-1-methylpyrrolidin-2-yl]prop-2-enamide] |  |  | 3.71 ± 1.68 L/kg | 12.7 mL/min/kg | 4.04 ± 1.39 h | 4480 ± 1880 ng/mL | 1/6 | 2/6 | well tolerant | MRT ([1]; read-out: Mean Residence Time MRT): 7.78 ± 1.89 h; inhibition of the growth of Calu-3 human lung cancer (in words) ([2]; Calu-3 xenografts): markedly inhibited; completely degraded tumor (fraction of tumors) [2, 5]: 1/6
2 | CCOc1cc2ncc(C#N)c(Nc3ccc(OCc4ccccn4)c(Cl)c3)c2cc1NC(=O)/C=C/[C@H]1CCCN1C [Example 5, (E)-N-[4-[[3-Chloro-4-(2-pyridylmethoxy)phenyl]amino]-3-cyano-7-ethoxy-6-quinolyl]-3-[(2R)-1-methylpyrrolidin-2-yl]prop-2-enamide] |  |  | 2.6 ± 0.94 L/kg | 8.83 mL/min/kg | 3.4 ± 0.45 h | 6470 ± 1810 ng/mL | 4/6 | 3/6 | well tolerant | 
3 | CCOc1cc2ncnc(Nc3ccc(F)c(Cl)c3)c2cc1NC(=O)/C=C/[C@H]1CCCN1C [Example 9, (E)-N-[4-[(3-Chloro-4-fluoro-phenyl)amino]-7-ethoxy-quinazolin-6-yl]-3-[(2R)-1-methylpyrrolidin-2-yl]prop-2-enamide] | 8 nM | 2 nM |  |  |  |  |  |  |  | 

Now from value to compound, other results behind:

Row | IC50 [3] | IC50 [4] | SMILES | Vd/F [1] | CL/F [1] | half-life [1] | Cmax [1] | reduced tumor volume (fraction of tumors) [2, 5] | reduced tumor volume (fraction of tumors) [2, 6] | tolerance of the mice [2] | other results
4 | 3 nM | 6 nM | CCOc1cc2ncc(C#N)c(Nc3ccc(OCc4ccccn4)c(Cl)c3)c2cc1NC(=O)/C=C/[C@@H]1CCCN1 [Example 2, (E)-N-[4-[[3-Chloro-4-(2-pyridylmethoxy)phenyl]amino]-3-cyano-7-ethoxy-6-quinolyl]-3-[(2S)-pyrrolidin-2-yl]prop-2-enamide] |  |  |  |  |  |  |  | 
5 | 36 nM | 59 nM | CCOc1cc2ncc(C#N)c(Nc3ccc(OCc4ccccn4)c(Cl)c3)c2cc1NC(=O)/C=C/[C@@H]1C[C@@H](O)CN1C [Example 3, (E)-N-[4-[[3-Chloro-4-(2-pyridylmethoxy)phenyl]amino]-3-cyano-7-ethoxy-6-quinolyl]-3-[(2S,4R)-4-hydroxy-1-methyl-pyrrolidin-2-yl]prop-2-enamide] |  |  |  |  |  |  |  | 
6 |  | 4 nM | CCOc1cc2ncnc(Nc3ccc(F)c(Cl)c3)c2cc1NC(=O)/C=C/[C@@H]1CCCN1C [Example 7, (E)-N-[4-[(3-Chloro-4-fluoro-phenyl)amino]-7-ethoxy-quinazolin-6-yl]-3-[(2S)-1-methylpyrrolidin-2-yl]prop-2-enamide] |  |  |  |  |  |  |  | 
